{"source": "patent US20250170146A1", "about": "“NIRAPARIB AND ABIRATERONE ACETATE PLUS PREDNISONE TO IMPROVE CLINICAL OUTCOMES IN PATIENTS WITH METASTATIC CASTRATION-RESISTANT PROSTATE CANCER AND HRR ALTERATIONS” (JANSSEN PHARMACEUTICA NV, priority 2022, published 2025)", "origin": "cited, not measured here", "key": {"[1]": {"target": "T1, CYP2C8 (Homo sapiens, UniProt P10632)", "T1 construct": "host or cells: healthy subjects (in vivo; the subjects' own enzyme)", "T1 sequence (P10632 1-490)": "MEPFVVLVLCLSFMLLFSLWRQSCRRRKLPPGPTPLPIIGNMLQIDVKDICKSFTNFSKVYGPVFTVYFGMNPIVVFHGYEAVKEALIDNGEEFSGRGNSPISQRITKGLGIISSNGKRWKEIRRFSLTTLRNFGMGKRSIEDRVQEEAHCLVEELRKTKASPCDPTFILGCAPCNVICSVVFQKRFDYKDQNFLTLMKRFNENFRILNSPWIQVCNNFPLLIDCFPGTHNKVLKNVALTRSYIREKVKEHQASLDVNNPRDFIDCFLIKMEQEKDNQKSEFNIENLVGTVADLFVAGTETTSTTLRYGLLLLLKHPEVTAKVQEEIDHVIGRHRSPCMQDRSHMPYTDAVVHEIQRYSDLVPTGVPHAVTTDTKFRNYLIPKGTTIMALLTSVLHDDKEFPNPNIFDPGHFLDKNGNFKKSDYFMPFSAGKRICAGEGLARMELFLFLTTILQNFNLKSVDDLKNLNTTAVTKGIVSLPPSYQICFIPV", "details": "pioglitazone with a single dose of 1,000 mg AA; healthy subjects"}, "[2]": {"tested_on": "first line (pre-docetaxel) mCRPC", "details": "Prevail"}, "[3]": {"tested_on": "post-docetaxel mCRPC", "details": "Affirm"}, "[4]": {"tested_on": "mCRPC", "details": "TAX-327"}, "[5]": {"tested_on": "L2+ mCRPC HRR-positive"}}, "note": "Where two headings read alike, the source gives them in different places.", "data": [{"smiles": "CC(=O)O[C@H]1CC[C@@]2(C)C(=CC[C@@H]3[C@@H]2CC[C@]2(C)C(c4cccnc4)=CC[C@@H]32)C1", "note": "[AA, Abiraterone acetate]", "values": [{"measurement": "increase in AUC of pioglitazone", "setting": "[1]", "result": 46, "unit": "%"}]}, {"smiles": "CNC(=O)c1ccc(N2C(=S)N(c3ccc(C#N)c(C(F)(F)F)c3)C(=O)C2(C)C)cc1F", "note": "[Enzalutamide]", "values": [{"measurement": "12-month rPFS milestone", "setting": "[2]", "result": 65, "unit": "%"}, {"measurement": "investigator assessed rPFS", "setting": "[2]", "result": 20, "unit": "months"}, {"measurement": "median OS", "setting": "[2]", "result": 35.3, "unit": "months"}, {"measurement": "median rPFS", "setting": "[2]", "result": "not reached"}, {"measurement": "objective response rate (ORR)", "setting": "[2]", "result": 59, "unit": "%"}, {"measurement": "rPFS benefit by BICR Hazard Ratio", "setting": "[2]", "result": 0.32}, {"measurement": "rPFS risk reduction by BICR", "setting": "[2]", "result": 68, "unit": "%"}, {"measurement": "OS", "setting": "[3]", "result": 18.4, "unit": "months"}, {"measurement": "OS benefit vs placebo", "setting": "[3]", "result": 4.8, "unit": "months"}, {"measurement": "PSA50 response", "setting": "[3]", "result": 54, "unit": "%"}, {"measurement": "QoL response rate", "setting": "[3]", "result": 43, "unit": "%"}, {"measurement": "TTPSA progression", "setting": "[3]", "result": 8.3, "unit": "months"}, {"measurement": "rPFS", "setting": "[3]", "result": 8.3, "unit": "months"}]}, {"smiles": "CC(=O)O[C@@]12CO[C@@H]1C[C@H](O)[C@@]1(C)C(=O)[C@H](O)C3=C(C)[C@@H](OC(=O)[C@H](O)[C@@H](NC(=O)OC(C)(C)C)c4ccccc4)C[C@@](O)([C@@H](OC(=O)c4ccccc4)[C@H]21)C3(C)C", "note": "[docetaxel]", "values": [{"measurement": "OS benefit vs mitoxantrone", "setting": "[4]", "result": 2.4, "unit": "months"}, {"measurement": "PSA50 response", "setting": "[4]", "result": 45, "unit": "%"}, {"measurement": "overall survival (OS)", "setting": "[4]", "result": 18.9, "unit": "months"}, {"measurement": "quality of life (QoL) response", "setting": "[4]", "result": 22, "unit": "%"}, {"measurement": "tumor response", "setting": "[4]", "result": 12, "unit": "%"}]}, {"smiles": "O=C1c2c(O)ccc(O)c2C(=O)c2c(NCCNCCO)ccc(NCCNCCO)c21", "note": "[mitoxantrone]", "values": [{"measurement": "PSA50 response", "setting": "[4]", "result": 32, "unit": "%"}, {"measurement": "overall survival (OS)", "setting": "[4]", "result": 16.5, "unit": "months"}, {"measurement": "quality of life (QoL) response", "setting": "[4]", "result": 13, "unit": "%"}, {"measurement": "tumor response", "setting": "[4]", "result": 7, "unit": "%"}]}, {"smiles": "Cc1ccc(S(=O)(=O)O)cc1.NC(=O)c1cccc2cn(-c3ccc([C@@H]4CCCNC4)cc3)nc12", "note": "[niraparib, 2-[4-[(3S)-piperidin-3-yl]phenyl]-2H-indazole-7-carboxamide]", "values": [{"measurement": "median OS", "setting": "[5]; L2+ mCRPC BRCA patients", "result": 13.01, "unit": "months"}, {"measurement": "median rPFS", "setting": "[5]; L2+ mCRPC BRCA patients", "result": 8.08, "unit": "months"}, {"measurement": "median time to PSA progression", "setting": "[5]; L2+ mCRPC BRCA patients", "result": 5.13, "unit": "months"}, {"measurement": "median time to symptomatic skeletal event", "setting": "[5]; L2+ mCRPC BRCA patients", "result": 13.80, "unit": "months"}, {"measurement": "overall response rate (ORR)", "setting": "[5]; L2+ mCRPC BRCA patients", "result": 34.2, "unit": "%"}, {"measurement": "ORR", "setting": "[5]; L2+ mCRPC non-BRCA patients", "result": 10.6, "unit": "%"}, {"measurement": "median OS", "setting": "[5]; non-BRCA patients", "result": 9.63, "unit": "months"}, {"measurement": "median rPFS", "setting": "[5]; non-BRCA patients", "result": 3.71, "unit": "months"}, {"measurement": "median time to PSA progression", "setting": "[5]; non-BRCA patients", "result": 3.65, "unit": "months"}, {"measurement": "median time to symptomatic skeletal event", "setting": "[5]; non-BRCA patients", "result": 10.35, "unit": "months"}]}]}
